Assay [1] has as its system MSC which have undergone osteogenesis. Briefly: Calcium / matrix deposition by MSC which have undergone osteogenesis, complex sugars in the media. The class given is cell-based. As to conditions: sugar in the media. An excerpt: (§1) As used herein, the terms “complex sugar” and “complex sugars” includes monomeric and polymeric sugar chains. The use of sugars as a supplement enhancing extracellular matrix deposition is a unique aspect to the present invention. They can also be specific for cell type. As an example, previous studies have shown mesenchymal stem for chondrogenesis using a similar formulation as disclosed in the present invention, but without glucosamine sulfate. […] In a surprising aspect the present invention discloses that the use of certain complex sugars in the media massively increases the accumulation of calcium derived from osteocytes while the use of other sugars actively suppresses the accumulation of calcium. […] Fibroblasts allowed to acquire a MSC like state require galactose, glucuronic acid and glucosamine sulfate for cartilage formation, while hyaluronic acid will repress it. Examples of sugars are hyaluronic acid, galactose, glucosamine sulfate, glucuronic acid, mannose, sialic acid, chondroitin sulfate and galactosamine.

Assay [2] concerns MSC which have under gone chondrogenesis. Briefly: Cartilage / matrix formation by MSC which have undergone chondrogenesis, complex sugars in the media. The class given is cell-based. As to conditions: sugar in the media.
Source text: as §1

For assay [3], the system named is Fibroblasts allowed to acquire a MSC like state. Briefly: Cartilage formation by fibroblasts allowed to acquire a MSC like state, complex sugars in the media. The class given is cell-based. As to conditions: sugar in the media.
Source text: as §1
Fibroblast cells were grown in FibroLife S2 on standard tissue culture-treated plastic. Fibroblasts cells were plated at 20,000 cells/cm^2 and allowed the cells to grow to 80-90% confluence actively proliferating.
The cells were centrifuged and the cells resuspended at 2.5×10^7 cells/ml in 1.5% alignate solution. The cells in the alignate solution are loaded into a syringe and applied to a stirred 100 mM calcium chloride solution to form microbeads. After 10 minutes, the calcium chloride solution was removed and the microbeads transferred to a 48 well plate. The microbeads were washed twice with 0.5 ml ChondroLife Chondrogenesis media (Table 7). The plates were incubated at 37° C., 5% CO2. The media was changed every 2-3 days for 3 weeks.
To examine the growth of the chondrocytes, the microbeads were fixed, frozen in OCT compound, cut in 5 μM sections and mounted on glass slides. The microbeads were stained with Alcian Blue to detect the presence of sulfated proteoglycans.

The next assay has as its system mesenchymal stem cells. As to conditions: shown previously; cited from earlier work.
The test system of the next assay is fibroblasts. Conditions: has been shown; cited from earlier work.
A further assay concerns human fibroblast cells. Briefly: Differentiation of human fibroblast cells into adipocytes (lipid accumulation, Oil Red O). The class given is cell-based. Conditions: Troglitazone in combination with other elements. On the procedure:
Fibroblast cells were grown in FibroLife S2 on standard tissue culture-treated plastic. Fibroblasts cells were plated at 20,000 cells/cm^2 and allowed the cells to grow to confluence (roughly 80,000 cells/cm^2) in approximately 2 days. Once the cells reached confluence the cell culture media was changed to AdipoLife Complete DifFactor 1 media. The cell culture media continued to be changed every 2 days. After 4 days the cell culture media was changed to AdipoLife Complete DifFactor 2 media for 17 days. Lipid accumulation was visible after 5 days culture in the AdipoLife Complete DifFactor 2 media. After 3 weeks of culture the cells were stained with Oil Red O stained to assay for accumulated lipids

The text below walks through data of US20150299660A1, “DIFFERENTIATION OF HUMAN FIBROBLAST CELLS” (International Stem Cell Corporation, priority 2012, published 2015).

On to `N[C@H]1C(O)O[C@H](CO)[C@@H](O)[C@@H]1O.O=S(=O)(O)O` (some centres unmarked) [glucosamine sulfate], for which the “effect on calcium deposition / matrix formation” value in assay [1] is “vastly increased amounts of calcium deposition”. The “effect on cartilage formation / matrix deposition” value in assay [2] is “repress matrix deposition”. The “effect on cartilage formation” value in assay [3] is “require”. Further, the “effect on matrix secretion” value in the assay on mesenchymal stem cells is reported as “detrimental to matrix secretion”.
For `O=C[C@H](O)[C@@H](O)[C@H](O)[C@H](O)C(=O)O` [glucuronic acid], the “effect on cartilage formation / matrix deposition” value in assay [2] is listed as “vastly augments cartilage formation”. Further, in assay [3], the “effect on cartilage formation” value is “require”.
In the case of hyaluronic acid, in assay [1], the “effect on calcium deposition / matrix formation” value was “vastly increased amounts of calcium deposition”. In addition, in assay [2], the “effect on cartilage formation / matrix deposition” value is “vastly augments cartilage formation”. Further, in assay [3], the “effect on cartilage formation” value is reported as “repress it”. Also, the “effect on matrix deposition” value in the assay on fibroblasts was “detrimental to matrix deposition”.
With `Cc1c(C)c2c(c(C)c1O)CCC(C)(COc1ccc(CC3SC(=O)NC3=O)cc1)O2` (centres unmarked) [Troglitazone], the “surface of the human cell culture covered with lipid-accumulating cells” value in the assay with human fibroblast cells is at least 70%.
On to `O=C[C@H](O)[C@@H](O)[C@@H](O)[C@H](O)CO` [galactose], for which, in assay [1], the “effect on calcium deposition / matrix formation” value is on record as “vastly increased amounts of calcium deposition”. Moreover, the “effect on cartilage formation / matrix deposition” value in assay [2] is given as “vastly augments cartilage formation”. In addition, the “effect on cartilage formation” value in assay [3] is “require”.
